Here are results for seven compounds from paper PMC7508162 (Frontiers in Pharmacology, 2020).

In assay [1] the target is T1, human CD39 (Homo sapiens, UniProt P49961).
T1 sequence (P49961 1-510): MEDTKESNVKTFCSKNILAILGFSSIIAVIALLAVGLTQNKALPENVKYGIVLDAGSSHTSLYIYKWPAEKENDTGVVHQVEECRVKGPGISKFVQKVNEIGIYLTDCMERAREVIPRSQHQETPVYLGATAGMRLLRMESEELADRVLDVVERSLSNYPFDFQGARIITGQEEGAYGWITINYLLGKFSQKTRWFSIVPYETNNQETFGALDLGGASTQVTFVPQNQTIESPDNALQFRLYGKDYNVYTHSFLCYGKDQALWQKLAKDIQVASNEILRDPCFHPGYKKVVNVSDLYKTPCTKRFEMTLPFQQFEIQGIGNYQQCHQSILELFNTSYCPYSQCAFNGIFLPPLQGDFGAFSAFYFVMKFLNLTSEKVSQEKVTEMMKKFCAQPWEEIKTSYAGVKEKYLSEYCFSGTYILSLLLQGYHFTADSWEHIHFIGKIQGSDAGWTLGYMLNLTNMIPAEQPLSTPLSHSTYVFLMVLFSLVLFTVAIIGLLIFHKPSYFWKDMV
The assay can be described thus: Malachite green assay for CD39 (natural substrate ATP). It is filed as biochemical. The arrangement: Human umbilical cord membrane preparations (250 ng) natively expressing high amounts of CD39; from tissue; host or cells: human umbilical cord membranes. The following applies: natural substrate ATP 50 µM, n = 3, read-out: Ki ± SEM (converted). As for the experimental part:
(§1) They were minced and homogenized with a polytron in 95 mM NaCl, 0.1 mM phenylmethylsulfonyl fluoride (PMSF), and 45 mM Tris solution, pH 7.6. […] The pellets were resuspended in 5 mM Tris buffer solution, pH 8.0 and 10% glycerol. All purification steps were performed at 4°C. The preparations were kept at −80°C.
The reaction buffer contained 10 mM HEPES, 2 mM CaCl2, 1 mM MgCl2, pH 7.4 in a final volume of 50 μl in transparent 96-well half area plates. For CD39 (NTPDase1), we made use of human umbilical cord membranes preparations which express high levels of the enzyme. For the other human NTPDase isoenzymes, we had to resort to recombinant expression. […] The amount of enzyme preparation was adjusted to ensure 10–20% of substrate conversion. […] The released (inorganic) phosphate was quantified after 20 min of gentle shaking at 25°C by measuring the absorption of the malachite green-phosphomolybdate complex at 600 nm using a BMG PheraStar FS plate reader (BMG Labtech GmbH, Ortenberg, Germany).
% Inhibition=(B−T)/B*100%
where B is the average corrected absorption of the positive control without inhibitor and T the corrected absorption in the presence of test compound.
Full concentration-inhibition curves were determined with inhibitor concentrations ranging from 0.1 to 300 µM in the presence of 2% DMSO. Three independent experiments were performed (n = 3) and curves were calculated by the GraphPad Prism 8 software. The Ki value was calculated using the Cheng-Prusoff equation for competitive inhibitors: […]

Assay [2] concerns the target T1, human CD39. Put plainly: Fluorescence capillary electrophoresis assay for CD39. The format is biochemical. Details: Human umbilical cord membrane preparations (250 ng) natively expressing high amounts of CD39; from tissue; host or cells: human umbilical cord membranes. The following applies: for Ki: fluorescent substrate PSB-017621A 0.5 µM, human umbilical cord membrane preparation, n = 3, Cheng-Prusoff, read-out: Ki ± SEM. As for the experimental part: as §1
For inhibition screening, three independent experiments were performed. […] The reaction buffer contained 10 mM HEPES, 2 mM CaCl2, 1 mM MgCl2, pH 7.4. The samples were incubated at 37°C for 4 min, and the enzymatic reaction was terminated by heating at 90°C for 5 min. The solution was then diluted 1:20 with reaction buffer to perform separation of nucleotides by capillary electrophoresis (CE) followed by laser-induced fluorescence (LIF) detection. […] Three independent experiments were performed, and curves were calculated by GraphPad Prism 8 software (GraphPad software, San Diego, CA, USA).
Analysis was carried out using a P/ACE MDQ capillary electrophoresis system (Beckman Instruments, Fullerton, CA, USA). The separation was performed in a polyacrylamide-coated capillary [30 cm (10 cm effective length) × 50 µm (id), × 360 µm (od)]. Before each run, the capillary was rinsed with the background electrolyte [50 mM phosphate buffer (pH 6.5)] for 1 min at 30 psi. Samples were electrokinetically injected by applying a voltage of -6 kV for 30 s at the capillary outlet, and the fluorescent nucleotide derivatives were separated by voltage application of -15 kV. […] Data collection and peak area analysis were performed by the P/ACE MDQ software 32 KARAT obtained from Beckman Coulter (Fullerton, CA, USA).

In assay [3] the target is T1, human CD39. The arrangement: Human umbilical cord membrane preparations (250 ng) natively expressing high amounts of CD39; from tissue; host or cells: human umbilical cord membranes. The following applies: Figure 2, ref Crack et al., 1995, Müller et al., 2006, Lévesque et al., 2007, Baqi et al., 2009, Lecka et al., 2013, Lee et al., 2015, Kanwal et al., 2019, read-out: Ki (reported potency); cited from earlier work.

Assay [4] concerns the target T1, human CD39. Details: Human umbilical cord membrane preparations (250 ng) natively expressing high amounts of CD39; from tissue; host or cells: human umbilical cord membranes; method as in Lee et al., 2018. The following applies: fluorescent substrate of CD39; ref Lee et al., 2018; cited from earlier work.
For the next assay, the target named is rat CD39. Details: method as in Baqi et al., 2009. The following applies: Figure 2, ref Baqi et al., 2009, read-out: Ki (reported potency); cited from earlier work.
The next assay addresses T2, NTPDase3 (Homo sapiens, UniProt O75355).
T2 sequence (O75355 1-529): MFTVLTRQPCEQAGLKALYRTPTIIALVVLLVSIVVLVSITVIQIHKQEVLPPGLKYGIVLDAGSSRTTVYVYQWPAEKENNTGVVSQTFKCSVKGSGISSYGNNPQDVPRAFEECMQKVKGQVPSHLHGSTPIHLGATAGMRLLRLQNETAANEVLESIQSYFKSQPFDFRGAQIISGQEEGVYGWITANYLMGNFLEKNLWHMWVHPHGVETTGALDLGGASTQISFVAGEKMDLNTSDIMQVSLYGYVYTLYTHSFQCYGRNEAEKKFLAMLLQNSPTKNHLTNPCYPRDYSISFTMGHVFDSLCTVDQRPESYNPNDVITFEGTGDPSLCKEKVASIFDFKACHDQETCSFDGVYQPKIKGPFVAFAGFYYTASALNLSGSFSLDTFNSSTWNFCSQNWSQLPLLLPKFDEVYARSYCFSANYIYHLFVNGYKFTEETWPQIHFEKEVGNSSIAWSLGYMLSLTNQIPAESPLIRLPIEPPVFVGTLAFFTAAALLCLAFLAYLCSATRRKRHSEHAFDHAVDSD
The following applies: read-out: Km (NTPDase3); substrate ATP; ref Kukulski et al., 2005; cited from earlier work.

Assay [5] concerns the target T1, human CD39. The following applies: read-out: Km (CD39); substrate ATP; ref Kukulski et al., 2005; cited from earlier work.
Another assay concerns the target T3, NTPDase8 (Homo sapiens, UniProt Q5MY95).
T3 sequence (Q5MY95 1-495): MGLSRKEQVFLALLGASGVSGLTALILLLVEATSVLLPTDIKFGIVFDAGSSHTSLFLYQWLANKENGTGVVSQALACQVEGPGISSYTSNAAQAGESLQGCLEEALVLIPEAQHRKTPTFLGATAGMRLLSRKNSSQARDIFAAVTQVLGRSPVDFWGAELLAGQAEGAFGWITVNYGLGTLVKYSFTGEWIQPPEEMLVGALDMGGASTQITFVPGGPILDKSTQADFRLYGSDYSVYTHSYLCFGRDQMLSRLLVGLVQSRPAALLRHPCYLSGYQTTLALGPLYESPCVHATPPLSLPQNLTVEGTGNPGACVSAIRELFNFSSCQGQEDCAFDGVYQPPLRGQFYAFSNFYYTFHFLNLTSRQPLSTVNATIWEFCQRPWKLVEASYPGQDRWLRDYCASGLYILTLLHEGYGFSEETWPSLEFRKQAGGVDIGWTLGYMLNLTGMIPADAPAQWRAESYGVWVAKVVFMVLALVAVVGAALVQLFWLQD
The following applies: read-out: Km (NTPDase8); substrate ATP; ref Kukulski et al., 2005; cited from earlier work.

Another assay concerns the target T4, NTPDase2 (Homo sapiens, UniProt Q9Y5L3).
T4 sequence (Q9Y5L3 1-495): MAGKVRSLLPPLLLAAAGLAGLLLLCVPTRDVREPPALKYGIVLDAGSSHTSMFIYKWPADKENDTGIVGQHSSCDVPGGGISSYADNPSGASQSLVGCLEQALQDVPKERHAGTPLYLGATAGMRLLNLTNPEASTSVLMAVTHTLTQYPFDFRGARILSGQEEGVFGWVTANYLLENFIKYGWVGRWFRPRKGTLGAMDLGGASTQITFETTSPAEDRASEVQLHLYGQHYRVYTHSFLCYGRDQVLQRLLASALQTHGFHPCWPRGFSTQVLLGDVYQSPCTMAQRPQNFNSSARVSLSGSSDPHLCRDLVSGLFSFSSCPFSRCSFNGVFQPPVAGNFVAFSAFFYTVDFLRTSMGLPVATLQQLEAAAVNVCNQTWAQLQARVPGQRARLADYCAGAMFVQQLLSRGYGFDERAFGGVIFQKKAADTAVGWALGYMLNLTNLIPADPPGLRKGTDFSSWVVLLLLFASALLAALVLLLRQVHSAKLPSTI
The following applies: read-out: Km (NTPDase2); substrate ATP; ref Kukulski et al., 2005; cited from earlier work.

Like-named read-outs stand apart in the source and are kept apart here.

As a reminder, the Ki is the dissociation constant of the complex between target and ligand, obtained from inhibition or displacement. By Km is commonly meant the substrate concentration at which the rate is half of its maximum.

As to `Nc1ncnc2c1ncn2[C@@H]1O[C@H](COP(=O)(O)CP(=O)(O)OP(=O)(O)O)[C@@H](O)[C@H]1O` [Compound 41, α,β-Methylene-ATP, reference compound], the Ki is 7.2 µM at human CD39 [1] and 0.632 ± 0.024 µM at human CD39 [2].
Regarding `Oc1c(Cl)cc(Cl)cc1/C=N/CCc1c[nH]c2ccccc12` [Tryptamine derivative (V)], the Ki on human CD39 [3] is 0.021 µM.
With `O=C(NCCCCCCNc1ncnc2c1ncn2[C@@H]1O[C@H](COP(=O)(O)OP(=O)(O)OP(=O)(O)O)[C@@H](O)[C@H]1O)c1ccc2c(c1)C(=O)OC21c2ccc(O)cc2Oc2cc(O)ccc21` [PSB-017621A, N^6-[6-(Fluoresceinyl-5′-carboxamido)hexyl]-ATP], the Km on human CD39 [4] is 19.6 µM.
Consider `Nc1c(S(=O)(=O)O)cc(Nc2ccc3ccccc3c2)c2c1C(=O)c1ccccc1C2=O` [III, 1-Amino-2-sulfo-4-(2-naphthylamino)-anthraquinone], for which the Ki at rat CD39 was 0.33 µM.
As for `CCCCSc1nc2c(N(CC)CC)ncnc2n1[C@@H]1O[C@H](COP(=O)(O)OP(=O)(O)C(Br)(Br)P(=O)(O)O)[C@@H](O)[C@H]1O` [Compound 37, (Dibromo((((((2R,3S,4R,5R)-5-(8-(butylthio)-6-(diethylamino)-9H-purin-9-yl)-3,4-dihydroxy-tetrahydrofuran-2-yl)methoxy)(hydroxy)phosphoryl)oxy)-(hydroxy)phosphoryl)methyl)phosphonic Acid], the values for the Ki on human CD39 [1] and at human CD39 [2] were 5.98 µM and 7.48 ± 1.29 µM, respectively.
With `Nc1ncnc2c1ncn2[C@@H]1O[C@H](COP(=O)(O)OP(=O)(O)C(F)(F)P(=O)(O)O)[C@@H](O)[C@H]1O` [Compound 40, (((((((2R,3S,4R,5R)-5-(6-Amino-9H-purin-9-yl)-3,4-dihydroxytetrahydrofuran-2-yl)methoxy)-(hydroxy)-phosphoryl)oxy)(hydroxy)phosphoryl)difluoromethyl)-phosphonic Acid], the values for the Ki at human CD39 [1] and at human CD39 [2] were 4.55 µM and 10.6 ± 0.4 µM, respectively. Also, at human CD39 [2] (human CD39), the “IC50 (in words)” value is given as “low micromolar range”. Also, the “fold less potent than dibromo-derivative 38 at CD39” value on human CD39 [2] (ratio of Ki values, fluorescence CE assay) is “about 2 fold”.
On to `Nc1ncnc2c1ncn2[C@@H]1O[C@H](COP(=O)(O)OP(=O)(O)OP(=O)(O)O)[C@@H](O)[C@H]1O` [ATP], for which the Km on NTPDase3 was 75 µM; at human CD39 [5], 17 µM; on NTPDase8, 46 µM; at NTPDase2 it was 70 µM.
